Counter-ions that a name gives are not always drawn.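 Five compound concentrations were applied to cells in 96-well plates for 48 hours; endpoints were derived by simple linear interpolation of the resulting dose-response curve. The concentration for 50% growth inhibition is given as GI50.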 The source made the active and inactive calls. No stated cut-off is given here; in the data, active = GI50 up to about 1.1 µM and inactive = higher.
Assays:
Assay in all cases: DTP human tumour cell line panel, 48 h
786-0 = tested on: 786-0
A498 = tested on: A498
A549 = tested on: A549
ACHN = tested on: ACHN
BT-549 = tested on: BT-549
CAKI-1 = tested on: CAKI-1
CCRF-CEM = tested on: CCRF-CEM
COLO 205 = tested on: COLO 205
DU-145 = tested on: DU-145
EKVX = tested on: EKVX
HCC 2998 = tested on: HCC 2998
HCT-116 = tested on: HCT-116
HCT-15 = tested on: HCT-15
HL-60 = tested on: HL-60
HOP-62 = tested on: HOP-62
HOP-92 = tested on: HOP-92
HT-29 = tested on: HT-29
Hs-578T = tested on: Hs-578T
IGROV-1 = tested on: IGROV-1
K562 = tested on: K562
KM12 = tested on: KM12
LOX IMVI = tested on: LOX IMVI
M14 = tested on: M14
MCF7 = tested on: MCF7
MDA-MB-231 = tested on: MDA-MB-231
MDA-MB-435 = tested on: MDA-MB-435
MDA-N = tested on: MDA-N
MOLT-4 = tested on: MOLT-4
Malme-3M = tested on: Malme-3M
NCI-H226 = tested on: NCI-H226
NCI-H23 = tested on: NCI-H23
NCI-H460 = tested on: NCI-H460
NCI-H522 = tested on: NCI-H522
NCI/ADR-RES = tested on: NCI/ADR-RES
OVCAR-3 = tested on: OVCAR-3
OVCAR-4 = tested on: OVCAR-4
OVCAR-5 = tested on: OVCAR-5
OVCAR-8 = tested on: OVCAR-8
PC-3 = tested on: PC-3
RPMI-8226 = tested on: RPMI-8226
RXF 393 = tested on: RXF 393
SF-268 = tested on: SF-268
SF-295 = tested on: SF-295
SF-539 = tested on: SF-539
SK-MEL-28 = tested on: SK-MEL-28
SK-MEL-2 = tested on: SK-MEL-2
SK-MEL-5 = tested on: SK-MEL-5
SK-OV-3 = tested on: SK-OV-3
SN12C = tested on: SN12C
SNB-19 = tested on: SNB-19
SNB-75 = tested on: SNB-75
SR = tested on: SR
SW-620 = tested on: SW-620
T47D = tested on: T47D
TK-10 = tested on: TK-10
U-251 = tested on: U-251
UACC-257 = tested on: UACC-257
UACC-62 = tested on: UACC-62
UO-31 = tested on: UO-31
DMS-114 = tested on: DMS-114
DMS-273 = tested on: DMS-273
KM-20L2 = tested on: KM-20L2
M19-MEL = tested on: M19-MEL
SNB-78 = tested on: SNB-78
DLD-1 = tested on: DLD-1
LXFL 529 = tested on: LXFL 529
XF498 = tested on: XF498

Structure (SMILES): CC(C)(C)CC(C)(C)c1ccc(O)c(C[N+](C)(C)[O-])c1
- GI50 (786-0): > 100 µM (inactive)
- GI50 (A498): > 100 µM (inactive)
- GI50 (A549): > 100 µM (inactive)
- GI50 (ACHN): > 100 µM (inactive)
- GI50 (BT-549): > 100 µM (inactive)
- GI50 (CAKI-1): > 100 µM (inactive)
- GI50 (CCRF-CEM): 41.8 µM (inactive)
- GI50 (COLO 205): 60.3 µM (inactive)
- GI50 (DU-145): > 100 µM (inactive)
- GI50 (EKVX): > 100 µM (inactive)
- GI50 (HCC 2998): 31.9 µM (inactive)
- GI50 (HCT-116): 98.6 µM (inactive)
- GI50 (HCT-15): > 100 µM
- GI50 (HL-60): 33.3 µM (inactive)
- GI50 (HOP-62): > 100 µM (inactive)
- GI50 (HOP-92): 77.4 µM (inactive)
- GI50 (HT-29): 73.6 µM (inactive)
- GI50 (Hs-578T): 65.6 µM (inactive)
- GI50 (IGROV-1): > 100 µM (inactive)
- GI50 (K562): 74.8 µM (inactive)
- GI50 (KM12): > 100 µM (inactive)
- GI50 (LOX IMVI): > 100 µM (inactive)
- GI50 (M14): > 100 µM (inactive)
- GI50 (MCF7): 80 µM (inactive)
- GI50 (MDA-MB-231): > 100 µM (inactive)
- GI50 (MDA-MB-435): 79.4 µM (inactive)
- GI50 (MDA-N): > 100 µM (inactive)
- GI50 (MOLT-4): 53.6 µM (inactive)
- GI50 (Malme-3M): > 100 µM (inactive)
- GI50 (NCI-H226): > 100 µM (inactive)
- GI50 (NCI-H23): > 100 µM (inactive)
- GI50 (NCI-H460): > 100 µM (inactive)
- GI50 (NCI-H522): 53.5 µM (inactive)
- GI50 (NCI/ADR-RES): > 100 µM (inactive)
- GI50 (OVCAR-3): 58.5 µM (inactive)
- GI50 (OVCAR-4): 63.5 µM (inactive)
- GI50 (OVCAR-5): > 100 µM (inactive)
- GI50 (OVCAR-8): > 100 µM (inactive)
- GI50 (PC-3): 85.7 µM (inactive)
- GI50 (RPMI-8226): 62.2 µM (inactive)
- GI50 (RXF 393): > 100 µM (inactive)
- GI50 (SF-268): 85.5 µM (inactive)
- GI50 (SF-295): > 100 µM (inactive)
- GI50 (SF-539): > 100 µM (inactive)
- GI50 (SK-MEL-28): > 100 µM (inactive)
- GI50 (SK-MEL-2): > 100 µM (inactive)
- GI50 (SK-MEL-5): 58.9 µM (inactive)
- GI50 (SK-OV-3): > 100 µM (inactive)
- GI50 (SN12C): > 100 µM (inactive)
- GI50 (SNB-19): > 100 µM (inactive)
- GI50 (SNB-75): 91.2 µM (inactive)
- GI50 (SR): 64.9 µM (inactive)
- GI50 (SW-620): > 100 µM (inactive)
- GI50 (T47D): 68.2 µM (inactive)
- GI50 (TK-10): > 100 µM (inactive)
- GI50 (U-251): > 100 µM (inactive)
- GI50 (UACC-257): > 100 µM (inactive)
- GI50 (UACC-62): > 100 µM (inactive)
- GI50 (UO-31): 60.1 µM (inactive)

Structure (SMILES): NC(CCCC(N)P(=O)(O)O)C(=O)O (centres undefined)
- GI50 (A498): > 100 µM (inactive)
- GI50 (A549): > 10 µM (inactive)
- GI50 (ACHN): > 100 µM (inactive)
- GI50 (CCRF-CEM): > 100 µM (inactive)
- GI50 (DMS-114): > 100 µM (inactive)
- GI50 (DMS-273): > 100 µM (inactive)
- GI50 (EKVX): > 100 µM (inactive)
- GI50 (HCT-116): > 100 µM (inactive)
- GI50 (HL-60): > 100 µM (inactive)
- GI50 (HOP-62): > 100 µM (inactive)
- GI50 (HOP-92): > 100 µM (inactive)
- GI50 (HT-29): > 100 µM (inactive)
- GI50 (IGROV-1): > 100 µM (inactive)
- GI50 (KM-20L2): > 100 µM (inactive)
- GI50 (KM12): > 100 µM (inactive)
- GI50 (M14): > 100 µM (inactive)
- GI50 (M19-MEL): > 100 µM (inactive)
- GI50 (MOLT-4): > 100 µM (inactive)
- GI50 (NCI-H226): > 100 µM (inactive)
- GI50 (NCI-H23): > 100 µM (inactive)
- GI50 (NCI-H460): > 100 µM (inactive)
- GI50 (NCI-H522): > 100 µM (inactive)
- GI50 (OVCAR-5): > 100 µM (inactive)
- GI50 (OVCAR-8): > 100 µM (inactive)
- GI50 (RXF 393): > 100 µM (inactive)
- GI50 (SF-268): > 100 µM (inactive)
- GI50 (SF-295): > 100 µM (inactive)
- GI50 (SK-MEL-28): > 100 µM (inactive)
- GI50 (SK-OV-3): > 100 µM (inactive)
- GI50 (SNB-19): > 100 µM (inactive)
- GI50 (SNB-78): > 100 µM (inactive)
- GI50 (SR): > 100 µM (inactive)
- GI50 (TK-10): > 100 µM (inactive)
- GI50 (U-251): > 100 µM (inactive)
- GI50 (UACC-257): > 100 µM (inactive)
- GI50 (UACC-62): > 100 µM (inactive)
- GI50 (UO-31): > 100 µM (inactive)

Structure (SMILES): CCN(CC)CCC(=O)NC1c2ccccc2Oc2c(C)cccc21 (centres undefined)
- GI50 (786-0): > 100 µM (inactive)
- GI50 (A549): > 100 µM (inactive)
- GI50 (ACHN): > 100 µM (inactive)
- GI50 (CCRF-CEM): > 100 µM (inactive)
- GI50 (COLO 205): > 100 µM (inactive)
- GI50 (DLD-1): > 100 µM (inactive)
- GI50 (DMS-114): > 100 µM (inactive)
- GI50 (DMS-273): > 100 µM (inactive)
- GI50 (EKVX): > 100 µM (inactive)
- GI50 (HCC 2998): > 100 µM (inactive)
- GI50 (HCT-116): > 100 µM (inactive)
- GI50 (HCT-15): > 100 µM
- GI50 (HL-60): > 100 µM (inactive)
- GI50 (HOP-62): > 100 µM (inactive)
- GI50 (HT-29): > 100 µM (inactive)
- GI50 (IGROV-1): > 100 µM (inactive)
- GI50 (K562): > 100 µM (inactive)
- GI50 (LOX IMVI): > 100 µM (inactive)
- GI50 (LXFL 529): > 100 µM (inactive)
- GI50 (M14): > 100 µM (inactive)
- GI50 (M19-MEL): > 100 µM (inactive)
- GI50 (MOLT-4): > 100 µM (inactive)
- GI50 (NCI-H226): > 100 µM (inactive)
- GI50 (NCI-H23): > 100 µM (inactive)
- GI50 (NCI-H460): > 100 µM (inactive)
- GI50 (OVCAR-4): > 100 µM (inactive)
- GI50 (OVCAR-5): > 100 µM (inactive)
- GI50 (OVCAR-8): > 100 µM (inactive)
- GI50 (RPMI-8226): > 100 µM (inactive)
- GI50 (RXF 393): > 100 µM (inactive)
- GI50 (SF-268): > 100 µM (inactive)
- GI50 (SF-539): > 100 µM (inactive)
- GI50 (SK-MEL-28): > 100 µM (inactive)
- GI50 (SK-MEL-5): > 100 µM (inactive)
- GI50 (SK-OV-3): > 100 µM (inactive)
- GI50 (SN12C): > 100 µM (inactive)
- GI50 (SNB-19): > 100 µM (inactive)
- GI50 (SNB-75): > 100 µM (inactive)
- GI50 (SNB-78): > 100 µM (inactive)
- GI50 (SR): > 100 µM (inactive)
- GI50 (SW-620): > 100 µM (inactive)
- GI50 (TK-10): > 100 µM (inactive)
- GI50 (U-251): > 100 µM (inactive)
- GI50 (UACC-257): > 100 µM (inactive)
- GI50 (UACC-62): > 100 µM (inactive)
- GI50 (UO-31): 63.7 µM (inactive)
- GI50 (XF498): > 100 µM (inactive)

Structure (SMILES): COc1ccc2c(=O)c(C)c(-c3ccccc3)oc2c1CN(C)C [DIMEFLINE HYDROCHLORIDE]
- GI50 (A498): 56.4 µM (inactive)
- GI50 (DMS-114): > 100 µM (inactive)
- GI50 (EKVX): > 100 µM (inactive)
- GI50 (HCT-15): > 100 µM
- GI50 (K562): 57.1 µM (inactive)
- GI50 (KM-20L2): 58.2 µM (inactive)
- GI50 (LOX IMVI): 69.3 µM (inactive)
- GI50 (NCI-H460): 82.8 µM (inactive)
- GI50 (OVCAR-3): > 100 µM (inactive)
- GI50 (OVCAR-5): 47.1 µM (inactive)
- GI50 (RXF 393): 76 µM (inactive)
- GI50 (SF-268): > 100 µM (inactive)
- GI50 (SK-MEL-28): > 100 µM (inactive)
- GI50 (SK-MEL-5): 55 µM (inactive)
- GI50 (SN12C): > 100 µM (inactive)
- GI50 (SR): 84.5 µM (inactive)
- GI50 (SW-620): > 100 µM (inactive)
- GI50 (TK-10): 99.8 µM (inactive)
- GI50 (U-251): > 100 µM (inactive)
- GI50 (UACC-257): > 100 µM (inactive)
- GI50 (UO-31): 85.7 µM (inactive)

Reference: ChEMBL document CHEMBL1201862, “PubChem BioAssay data set” (2004)
